Where two headings read alike, the source gives them in different places. Where a SMILES comes first, the peptide text is derived from it. [ ]: non-standard residue; d: D form. ξ: configuration not given here. Oic = O=C(O)[C@@H]1C[C@@H]2CCCC[C@@H]2N1; Oic(3aξ,7aξ) = O=C(O)[C@@H]1CC2CCCCC2N1; Tic = O=C(O)[C@@H]1Cc2ccccc2CN1; Orn = NCCC[C@H](N)C(=O)O; Dap = NC[C@H](N)C(=O)O
Columns and labels:
[1] = tested on: LPS isolated from P. aeruginosa or K. pneumoniae; experiment: Precipitation of AMP-LPS mixtures prepared for CD; format: physicochemical; details: 350 μL stock LPS + 50 μL stock peptide, phosphate buffer; CD spectra could not be obtained
Method: (§1) Peptide solutions were prepared by dissolving approximately 2 mg of AMPs 70, 74, 75, 79, or 80 in 1.0 mL of phosphate buffer. […] For the LPS liposome studies 350 μL of stock LPS solution was mixed with 50 μL of stock peptide solution. CD spectroscopy is a sensitive technique, so it is commonly used to monitor conformational changes in peptides and proteins. […] All CD spectra were obtained by acquiring 8 scans using a 0.1 mm cylindrical quartz cell with a spectral range of 260 to 195 nm (at wavelengths below 195 nm the HTV exceeded 400, and therefore data collection was terminated at 195 nm) and a scanning rate of 20 nm/min. Acquisition parameters were bandwidth 1 nm, data pitch 0.2 nm, response time 2.0 s, and 5 mdeg sensitivity. Spectra were collected at room temperature (298 K). Contributions from LPS were eliminated by subtracting from the corresponding AMP-LPS solutions. All analyses of CD spectra were conducted after smoothing with a means-movement function.

[2] = tested on: K. pneumoniae BAMC 07-18
[3] = tested on: P. aeruginosa PAO1; format: cell-based, Pseudomonas aeruginosa
Text: Table 3 In vitro minimum inhibitory concentration (MIC) and minimum bactericide concentration (MBC) activity against K. pneumonia and P. aeruginosa. | column: P. aeruginosa PAO1 / MBC (µg/mL)/(μM)

[4] = tested on: P. aeruginosa PAO1; details: for in vitro inhibitory activity: against P. aeruginosa
[5] = tested on: K. pneumoniae BAMC 07-18; format: cell-based, Klebsiella pneumoniae
Text: Table 3 In vitro minimum inhibitory concentration (MIC) and minimum bactericide concentration (MBC) activity against K. pneumonia and P. aeruginosa. | column: K. pneumoniae BAMC 07-18 / MBC (μg/mL)/(μM)

[6] = format: physicochemical
Method: as §1

[7] = K. pneumoniae BAMC 07-18, light face value
[8] = P. aeruginosa PAO1, light face value

SMILES | MIC ([2]; BAMC 07-18) [µM] | MIC [2, 7] [µg/mL] | MIC [4, 8] [µg/mL] | MIC ([4]; PAO1) [µM] | solubility in phosphate buffer at approximately 2 mg in 1.0 mL [6] | precipitation in the presence of either LPS [1] | MBC [3, 8] [µg/mL] | MBC ([3]; PAO1) [µM] | MBC ([5]; BAMC 07-18) [µM] | MBC [5, 7] [µg/mL] | in vitro inhibitory activity [4] [µg/mL] | in vitro inhibitory activity ([2]; against K. pneumoniae) [µg/mL]
CC(C)C[C@H](NC(=O)[C@@H](N)CN)C(=O)N1Cc2ccccc2C[C@H]1C(=O)N1[C@H](C(=O)N[C@@H](CN)C(=O)N2Cc3ccccc3C[C@H]2C(=O)N2[C@H](C(=O)N[C@@H](Cc3ccccc3)C(=O)N3Cc4ccccc4C[C@H]3C(=O)N3[C@H](C(=O)N[C@@H](CN)C(=O)N4Cc5ccccc5C[C@H]4C(=O)N4[C@H](C(=O)N[C@@H](Cc5ccccc5)C(=O)N5Cc6ccccc6C[C@H]5C(=O)N5[C@H](C(=O)N[C@@H](CN)C(=O)N6Cc7ccccc7C[C@H]6C(=O)N6[C@H](C(=O)N[C@@H](CN)C(=O)N[C@@H](CN)C(=O)N[C@@H](CN)C(=O)N[C@@H](CN)C(N)=O)C[C@@H]7CCCC[C@@H]76)C[C@@H]6CCCC[C@@H]65)C[C@@H]5CCCC[C@@H]54)C[C@@H]4CCCC[C@@H]43)C[C@@H]3CCCC[C@@H]32)C[C@@H]2CCCC[C@@H]21 [AMP 72] (H-[Dap]L[Tic][Oic][Dap][Tic][Oic]F[Tic][Oic][Dap][Tic][Oic]F[Tic][Oic][Dap][Tic][Oic][Dap][Dap][Dap][Dap]-NH2) | 33.6 | 100 | 50 | 16.8 |  | precipitation of uncharacterized AMP-LPS complexes | 100 | 33.6 | 33.6 | 100 |  | 
CC(C)C[C@H](NC(=O)[C@@H](N)CCCN)C(=O)N1Cc2ccccc2C[C@H]1C(=O)N1[C@H](C(=O)N[C@@H](CCCN)C(=O)N2Cc3ccccc3C[C@H]2C(=O)N2[C@H](C(=O)N[C@@H](Cc3ccccc3)C(=O)N3Cc4ccccc4C[C@H]3C(=O)N3[C@H](C(=O)N[C@@H](CCCN)C(=O)N4Cc5ccccc5C[C@H]4C(=O)N4[C@H](C(=O)N[C@@H](Cc5ccccc5)C(=O)N5Cc6ccccc6C[C@H]5C(=O)N5[C@H](C(=O)N[C@@H](CCCN)C(=O)N6Cc7ccccc7C[C@H]6C(=O)N6[C@H](C(=O)N[C@@H](CCCN)C(=O)N[C@@H](CCCN)C(=O)N[C@@H](CCCN)C(=O)N[C@@H](CCCN)C(N)=O)C[C@@H]7CCCC[C@@H]76)C[C@@H]6CCCC[C@@H]65)C[C@@H]5CCCC[C@@H]54)C[C@@H]4CCCC[C@@H]43)C[C@@H]3CCCC[C@@H]32)C[C@@H]2CCCC[C@@H]21 [AMP 71] (H-[Orn]L[Tic][Oic][Orn][Tic][Oic]F[Tic][Oic][Orn][Tic][Oic]F[Tic][Oic][Orn][Tic][Oic][Orn][Orn][Orn][Orn]-NH2) | 31.2 | 100 | 100 | 31.2 |  | precipitation of uncharacterized AMP-LPS complexes |  |  |  |  |  | 
CC(C)C[C@H](NC(=O)[C@@H](N)CCCCN)C(=O)N1Cc2ccccc2C[C@H]1C(=O)N1C2CCCCC2C[C@H]1C(=O)NCC(=O)N[C@@H](CCCCN)C(=O)N1Cc2ccccc2C[C@H]1C(=O)N1C2CCCCC2C[C@H]1C(=O)NCC(=O)N[C@@H](Cc1ccccc1)C(=O)N1Cc2ccccc2C[C@H]1C(=O)N1C2CCCCC2C[C@H]1C(=O)NCC(=O)N[C@@H](CCCCN)C(=O)N1Cc2ccccc2C[C@H]1C(=O)N1C2CCCCC2C[C@H]1C(=O)NCC(=O)N[C@@H](Cc1ccccc1)C(=O)N1Cc2ccccc2C[C@H]1C(=O)N1C2CCCCC2C[C@H]1C(=O)NCC(=O)N[C@@H](CCCCN)C(=O)N1Cc2ccccc2C[C@H]1C(=O)N1C2CCCCC2C[C@H]1C(=O)N[C@@H](CCCCN)C(=O)N[C@@H](CCCCN)C(=O)N[C@@H](CCCCN)C(=O)N[C@@H](CCCCN)C(N)=O (stereo partly drawn) [AMP 76] (H-KL[Tic][Oic(3aξ,7aξ)]GK[Tic][Oic(3aξ,7aξ)]GF[Tic][Oic(3aξ,7aξ)]GK[Tic][Oic(3aξ,7aξ)]GF[Tic][Oic(3aξ,7aξ)]GK[Tic][Oic(3aξ,7aξ)]KKKK-NH2) | 13.9 | 50 | 50 | 13.9 | solubility issues |  | 50 | 13.9 | 13.9 | 50 | 50 | 

More lines, main results first:

MIC ([2]; BAMC 07-18) [µM] | MIC [2, 7] [µg/mL] | MIC [4, 8] [µg/mL] | MIC ([4]; PAO1) [µM] | solubility in phosphate buffer at approximately 2 mg in 1.0 mL [6] | SMILES | precipitation in the presence of either LPS [1] | MBC [3, 8] [µg/mL] | MBC ([3]; PAO1) [µM] | MBC ([5]; BAMC 07-18) [µM] | MBC [5, 7] [µg/mL] | in vitro inhibitory activity [4] [µg/mL] | in vitro inhibitory activity ([2]; against K. pneumoniae) [µg/mL]
14.6 | 50 | 50 | 14.6 | solubility issues | CC(C)C[C@H](NC(=O)[C@@H](N)CCCCN)C(=O)N1Cc2ccccc2C[C@H]1C(=O)N1[C@H](C(=O)N[C@@H](CCCCN)C(=O)N2Cc3ccccc3C[C@H]2C(=O)N2[C@H](C(=O)N[C@@H](Cc3ccccc3)C(=O)NCC(=O)N3Cc4ccccc4C[C@H]3C(=O)N3[C@H](C(=O)N[C@@H](CCCCN)C(=O)N4Cc5ccccc5C[C@H]4C(=O)N4[C@H](C(=O)N[C@@H](Cc5ccccc5)C(=O)NCC(=O)N5Cc6ccccc6C[C@H]5C(=O)N5[C@H](C(=O)N[C@@H](CCCCN)C(=O)N6Cc7ccccc7C[C@H]6C(=O)N6[C@H](C(=O)N[C@@H](CCCCN)C(=O)N[C@@H](CCCCN)C(=O)N[C@@H](CCCCN)C(=O)N[C@@H](CCCCN)C(N)=O)C[C@@H]7CCCC[C@@H]76)C[C@@H]6CCCC[C@@H]65)C[C@@H]5CCCC[C@@H]54)C[C@@H]4CCCC[C@@H]43)C[C@@H]3CCCC[C@@H]32)C[C@@H]2CCCC[C@@H]21 [AMP 77] (H-KL[Tic][Oic]K[Tic][Oic]FG[Tic][Oic]K[Tic][Oic]FG[Tic][Oic]K[Tic][Oic]KKKK-NH2) |  | 50 | 14.6 | 29.2 | 100 | 50 | 
14.3 | 50 | 50 | 14.3 | solubility issues | CC(C)C[C@H](NC(=O)[C@@H](N)CCCCN)C(=O)N1Cc2ccccc2C[C@H]1C(=O)N1C2CCCCC2C[C@H]1C(=O)N[C@@H](CCCCN)C(=O)NCC(=O)N1Cc2ccccc2C[C@H]1C(=O)N1C2CCCCC2C[C@H]1C(=O)N[C@@H](Cc1ccccc1)C(=O)N1Cc2ccccc2C[C@H]1C(=O)N1C2CCCCC2C[C@H]1C(=O)N[C@@H](CCCCN)C(=O)NCC(=O)N1Cc2ccccc2C[C@H]1C(=O)N1C2CCCCC2C[C@H]1C(=O)N[C@@H](Cc1ccccc1)C(=O)N1Cc2ccccc2C[C@H]1C(=O)N1C2CCCCC2C[C@H]1C(=O)N[C@@H](CCCCN)C(=O)NCC(=O)N1Cc2ccccc2C[C@H]1C(=O)N1C2CCCCC2C[C@H]1C(=O)N[C@@H](CCCCN)C(=O)N[C@@H](CCCCN)C(=O)N[C@@H](CCCCN)C(=O)N[C@@H](CCCCN)C(N)=O (stereo partly drawn) [AMP 78] (H-KL[Tic][Oic(3aξ,7aξ)]KG[Tic][Oic(3aξ,7aξ)]F[Tic][Oic(3aξ,7aξ)]KG[Tic][Oic(3aξ,7aξ)]F[Tic][Oic(3aξ,7aξ)]KG[Tic][Oic(3aξ,7aξ)]KKKK-NH2) |  | 50 | 14.3 | 28.6 | 100 | 50 | 50
